{"source": "a melting point compilation (Tetko et al.; mined from patent text by program, amines drawn as free bases though some values may be those of a salt)", "data": [{"units": {"melting point": "°C"}, "values": [{"smiles": "NC(=O)c1cn(C(CO)COc2ccccc2)cn1", "note": "(stereo not drawn)", "melting point": "148 to 150"}, {"smiles": "CCCc1c(OCCCCCC(=O)c2ccc3cc(O)c(O)cc3c2)ccc(C(=O)OCC)c1O", "melting point": "170 to 172"}, {"smiles": "Cn1ncnc1COc1nc2c(cc1-c1ccsc1)nnn2-c1c(F)cccc1F", "melting point": "171 to 172"}, {"smiles": "CCCCCN(C(=O)c1cnc(N2CC(C)(C)NC2=O)nc1N)c1cccc(C(F)(F)F)c1", "melting point": "167 to 168"}, {"smiles": "COc1ccc(N2C(=O)O[C@H](COc3ccc(C#N)cc3)[C@@H]2C)cc1", "melting point": "127 to 128"}, {"smiles": "CN1CCN2c3ccccc3Cn3c(c(C=O)c4ccccc43)C2C1", "note": "(stereo not drawn)", "melting point": "260 to 266"}, {"smiles": "Cc1c(NC(=O)CC(C)(C)C)cc2c(c1C)OCC2(C)c1ccc(C(C)C)cc1", "note": "(stereo not drawn)", "melting point": "132 to 133"}, {"smiles": "Cc1nc2ccc(C#N)cc2[nH]1", "melting point": "238 to 240"}, {"smiles": "Cc1ccc(N(C)C2CCN(CC(=O)Nc3ccc(NS(C)(=O)=O)cc3)CC2)cc1", "melting point": "128 to 130"}, {"smiles": "Cc1cccc(-c2nc3cccnn3c2-c2ccnc(NC(=O)Nc3ccccc3)c2)c1", "melting point": "247 to 249"}, {"smiles": "CCOC(=O)c1cn(CCF)c2cc(F)c(F)cc2c1=O", "melting point": "178 to 180"}, {"smiles": "COc1cc2[nH]c(=O)c3c(c2cc1OC)CCN(C(=O)c1ccccc1)C3", "melting point": "290 to 297"}, {"smiles": "NC(=NCC(F)(F)F)Nc1ccnc(OCCCCO)n1.[H][H]", "melting point": "189 to 190"}, {"smiles": "CCN(CC)c1ccc(C2(c3ccc(N(CC)CC)cc3N(CC)CC)OC(=O)c3c(Cl)c(Cl)c(Cl)c(Cl)c32)cc1", "note": "(stereo not drawn)", "melting point": "196 to 197"}, {"smiles": "CC(C)(C)OC(=O)[C@H]1CCCN1S(=O)(=O)c1ccc2c(Cl)cnc(Cl)c2c1", "melting point": "80 to 82"}, {"smiles": "Cc1c(Cl)nc(N2CCNCC2)nc1NC(C)C", "melting point": 199}, {"smiles": "O=c1ccc2cc(-c3ccccc3)ccc2n1O", "melting point": "219 to 220"}, {"smiles": "CCOC(=O)c1c(NCc2ccccc2)n[nH]c1C", "melting point": "149 to 159"}, {"smiles": "COC(=O)c1cnc(C(=O)OC)c(Cl)c1", "melting point": "36 to 38"}, {"smiles": "COc1cc(Cn2cnc3cccnc32)ccc1C(=O)N(C(C)C)C1CCCCC1", "melting point": "96 to 98"}, {"smiles": "CN1Cc2c(-c3noc(C4CC4)n3)ncn2-c2ccccc2C1=O", "melting point": "179 to 181"}, {"smiles": "CCCNC(=O)Oc1ccc(C(O)(CC)c2ccc(Cl)cc2)cc1", "note": "(stereo not drawn)", "melting point": "71 to 72"}, {"smiles": "Nc1nc(=O)n(CCCN2CCN(C(c3ccccc3)c3ccccc3)CC2)c2ccccc12", "melting point": "190 to 196"}, {"smiles": "O=C1c2ccccc2-c2ccc(Cl)c3cccc1c23", "melting point": "179 to 190"}, {"smiles": "CCCCCCCCCCCCCCOc1ccccc1NS(=O)(=O)c1ccc2c(N=Nc3ccc(OC)cc3)c(O)ccc2c1", "melting point": "118 to 121"}, {"smiles": "c1ccc(CNc2ccnc3ccccc23)cc1", "melting point": 132}, {"smiles": "NS(=O)(=O)c1ccc(-c2cscc2-c2ccccc2)cc1F", "melting point": 171}, {"smiles": "Cc1oc(-c2ccccc2)nc1CCCCCC(CO)CO", "melting point": "71 to 74"}, {"smiles": "COc1ccc(CSc2nnc(-c3ccc4ncsc4c3)o2)cc1", "melting point": "134 to 135"}, {"smiles": "CCOC(=O)c1csc(-c2cccs2)n1", "melting point": "72 to 73"}, {"smiles": "CCCc1nc(Cl)cc(NC)n1", "melting point": "30 to 40"}, {"smiles": "COCn1cc2cc(C)c(NC(=O)c3cc(OC)nn3-c3ncccc3Cl)c(C(=O)NC(C)C)c2n1", "melting point": 148}, {"smiles": "CC(C)c1nn(-c2ccc(C(F)(F)F)cn2)cc1COc1cc(CCC(=O)O)n(C)n1", "melting point": "141 to 142"}, {"smiles": "O=c1[nH]nc2n1-c1ccc(Cl)nc1C(c1ccccc1)=[N+]([O-])C2", "melting point": "268 to 270"}, {"smiles": "C=C(C)C(=O)OCc1ccc(O)c(C=O)c1", "melting point": "82 to 84"}, {"smiles": "COc1ccc(C(=O)NCCOc2ccc(CC(Oc3ccccc3)C(=O)O)cc2)cn1", "note": "(stereo not drawn)", "melting point": "145 to 146"}, {"smiles": "CCOC(=O)c1cn(C2CC2)c2c(CO)c(N3CCN(C)CC3)c(F)cc2c1=O", "melting point": "216 to 218"}, {"smiles": "Cc1ccc(S(=O)(=O)Nc2nc(-c3ccc(Cl)c(Cl)c3)cs2)cc1", "melting point": "205 to 206"}, {"smiles": "CCn1cc(C(=O)O)c(=O)c2cc(F)c(N3CC4CCCC3CN4)c(F)c21", "note": "(stereo not drawn)", "melting point": "245 to 250"}, {"smiles": "COC(=O)c1ccc(-n2cccc2C=O)cc1", "melting point": "103 to 105"}, {"smiles": "CC(=O)N1CCN(Cc2cnc(-c3cc4c(Cl)ccc(N(C)S(=O)(=O)c5cccs5)c4[nH]3)s2)CC1", "melting point": "224 to 225"}, {"smiles": "CC(=C1SCCCS1)c1cccnc1", "melting point": "34 to 36"}, {"smiles": "CC(C)(C)OC(=O)Nc1ccc(C#Cc2ccccn2)cc1[N+](=O)[O-]", "melting point": "142 to 144"}, {"smiles": "N#Cc1cc2cccc(NS(=O)(=O)c3cccs3)c2[nH]1", "melting point": "283 to 284"}, {"smiles": "C=C(C)c1ccc2c(c1)C(=O)c1ccccc1C2=O", "melting point": 126}, {"smiles": "CNC(=O)[C@@H]1CC[C@H](C(=O)O)N1Cc1ccccc1", "note": "(relative stereo)", "melting point": "190 to 192"}, {"smiles": "Cn1ncc(S(N)(=O)=O)c1C1=NOCCO1", "melting point": "126 to 130"}, {"smiles": "O=C1N[C@@H](CSSc2ccccc2)C(=O)N2CCC[C@H]12", "melting point": 120}, {"smiles": "CN1C(=O)CC[C@]2(C)c3ccc(-c4ccc5ncsc5c4)cc3CC[C@@H]12", "melting point": "183 to 187"}, {"smiles": "CC(C)(C)C(=O)c1c[nH]nc1N", "melting point": "159 to 160"}, {"smiles": "CCn1cc(C=O)c2nc(N3CCN(Cc4ccccc4)CC3)ncc2c1=O", "melting point": 152}, {"smiles": "NC(=O)NN=Cc1ccc(Oc2cc(Cl)ccn2)cc1", "melting point": "231 to 233"}, {"smiles": "CC(C)(C)c1cc(SCCCCSCC(=O)O)cc(C(C)(C)C)c1O", "melting point": "84 to 86"}, {"smiles": "COc1ccc2c(Cc3ccc(O)cc3)c(-c3ccccc3)c(=O)oc2c1", "melting point": "235 to 236"}, {"smiles": "Nc1cccc2c1nnn2C1CCCCC1", "melting point": "54 to 60"}, {"smiles": "Cc1nc(C)c(CO)c(C)n1", "melting point": 68}, {"smiles": "CN1Cc2c(C#CBr)ncn2-c2ccc(F)cc2C1=O", "melting point": 167}, {"smiles": "C[C@@H]1CCCC[C@@H]1Nc1c(C(N)=O)cnc2[nH]c(-c3ccc(F)cc3)cc12", "melting point": "> 280"}, {"smiles": "CCOc1cc2c(Nc3cc(OC)c(Cl)cc3Cl)c(C#N)cnc2cc1N", "melting point": "230 to 233"}, {"smiles": "CNC(=N[N+](=O)[O-])N(Cc1cnc(Cl)s1)C(=O)N(C)C", "melting point": 140}, {"smiles": "CCNC(=O)c1c(Cl)ccc(N)c1[Si](C)(C)C", "melting point": "147 to 149"}, {"smiles": "NS(=O)(=O)c1ccc(-c2cccn2-c2ccc(F)cc2)cc1", "melting point": "160 to 161"}, {"smiles": "Cc1sc(-c2ccccc2)nc1CCOc1ccc(N)cn1", "melting point": "89 to 91"}, {"smiles": "Cc1cc(O)c(N)c([N+](=O)[O-])c1C", "melting point": "176 to 178"}, {"smiles": "Cc1nc(NC(=O)C2=C(O)c3ccc4ccccc4c3S(=O)(=O)N2)sc1C", "melting point": 253}, {"smiles": "CC(C)(C)c1cc(-c2nn(C(=O)c3cccs3)c3ncccc23)cc(C(C)(C)C)c1O", "melting point": "240 to 242"}, {"smiles": "Cc1nc(Sc2cc(C(=O)O)c3ccccc3n2)sc1CC(=O)O", "melting point": "206 to 208"}, {"smiles": "CCOC1CCC(=O)N1S(=O)(=O)c1ccc(O)cc1", "note": "(stereo not drawn)", "melting point": "162 to 163"}, {"smiles": "CC1=NCC2CNC(c3ccccc3F)c3cc(Cl)ccc3N12", "note": "(stereo not drawn)", "melting point": "108 to 110"}, {"smiles": "CCOC(=O)c1c(C(F)(F)F)nc(C(F)(F)F)c(C(=O)OCC)c1C", "melting point": "55 to 58"}, {"smiles": "CN(CCOc1ccc(CC(Oc2ccc(Cl)cc2)C(=O)O)cc1)c1nc2ccccc2o1", "note": "(stereo not drawn)", "melting point": "164 to 165"}, {"smiles": "CCCc1ccc(C=NN=Cc2ccc(F)c(F)c2)cc1", "melting point": 50}, {"smiles": "N=C(N)c1ccc(Cl)cc1", "melting point": "266 to 268"}, {"smiles": "CCN(CCNS(C)(=O)=O)c1ccc(NC(C)=O)c(C)c1", "melting point": "104 to 105"}, {"smiles": "Cc1nc(-c2ccc(O)cc2)cc(-c2c(Cl)ccc(Cl)c2Cl)c1C#N", "melting point": "191 to 195"}, {"smiles": "CN1CCN(c2cccc3c2C[C@H](NC(=O)c2cccc(Oc4ccccc4)c2)CC3)CC1", "melting point": "136 to 137"}, {"smiles": "COC(=O)c1ccc(S(C)(=O)=O)c(-c2ccon2)c1Cl", "melting point": "145 to 147"}, {"smiles": "NC(=O)N(O)CC#Cc1cccc(C2=N[C@H](c3ccc(F)cc3)CO2)c1", "melting point": 181}, {"smiles": "C#Cc1cccc([C@H]2C[C@H]2NC(=O)Nc2ccc(Cl)cn2)c1", "note": "(racemic)", "melting point": "148 to 150"}, {"smiles": "C[C@H](NC(c1ccccc1)(c1ccccc1)c1ccccc1)C(=O)O", "melting point": "154 to 155"}, {"smiles": "Nc1ccc2ccc(Oc3ccc(Cl)c(Cl)c3)nc2n1", "melting point": 206}, {"smiles": "Cc1c(-c2ccc([N+](=O)[O-])cc2)sc2[nH]c(=O)n(-c3ccccc3)c(=O)c12", "melting point": "> 300"}, {"smiles": "CCCc1nc2c(N)nc3ccccc3c2n1CC1(O)CCC1", "melting point": "228 to 229"}, {"smiles": "CC12CCC(O)CC1=CC(O)C1C2CCC2(C)C(O)C(O)CC12", "note": "(stereo not drawn)", "melting point": "217 to 221"}, {"smiles": "O=CNNc1ccc([N+](=O)[O-])cc1", "melting point": "183 to 185"}, {"smiles": "Oc1ccc(OCc2ccccc2)c(Cl)c1", "melting point": "49 to 51"}, {"smiles": "Cc1c(CC(=O)O)c2cc(OCc3csc(-c4ccccc4)n3)ccc2n1Cc1ccccc1", "melting point": "150 to 151"}, {"smiles": "CC(=O)NCCCCCC(=O)N1CC1C#N", "note": "(stereo not drawn)", "melting point": "74 to 77"}, {"smiles": "C=CC(=O)c1ccc(O)c(Cl)c1Cl", "melting point": "135 to 137"}, {"smiles": "Cc1ccc(C2=NC(C)(C)[C@@H](c3ccncc3)C2)c(C)c1", "melting point": "50 to 51"}, {"smiles": "CCc1cn(C2OC(CNC(=O)C(C)Oc3cc(OC)c(Br)cc3Br)C(O)C2F)c(=O)[nH]c1=O", "note": "(stereo not drawn)", "melting point": "223 to 224"}, {"smiles": "CNC(=O)N1CC(Oc2ccc(C(F)(F)F)cc2)C1", "melting point": "154 to 157"}, {"smiles": "COc1cc2ncnc(N3CCCCCc4ccccc43)c2cc1OC", "melting point": "204 to 207"}, {"smiles": "Cc1cc(Cl)nnc1-c1cccc([N+](=O)[O-])c1", "melting point": "169 to 171"}, {"smiles": "CN1C(=O)[C@H](NC(=O)C=Cc2ccc(Cl)cc2)N=C(c2ccccc2)c2ccccc21", "melting point": "203 to 205"}, {"smiles": "O=c1oc(=O)n(Cc2cccs2)c2ccccc12", "melting point": "137 to 140"}, {"smiles": "Cc1nc(N2CCN(Cc3ccccc3)C2=O)sc1C(=O)NCc1ccncc1", "melting point": "96 to 97"}, {"smiles": "N#CC1CCCc2cc3c(nc21)CCCC3", "note": "(stereo not drawn)", "melting point": "88 to 90"}, {"smiles": "COc1ccc(F)c(/C=C/CN2C(=O)c3ccccc3C2=O)c1", "melting point": 118}, {"smiles": "COc1ccc(CC2COCc3nc4c(N)nc5ccccc5c4n32)cc1", "note": "(stereo not drawn)", "melting point": "115 to 130"}, {"smiles": "COC(=O)c1cc(C(=O)N[C@@H](Cc2ccccc2)[C@H]2CN(C3(c4cccc(C(F)(F)F)c4)CC3)C(=O)O2)n2c1CN(C(=O)OC(C)(C)C)CC2", "melting point": 106}, {"smiles": "CCOC(=O)C1=C(C)NC(COC(C)=O)=C(C(=O)OCC)C1c1ccc(OC)cc1", "note": "(stereo not drawn)", "melting point": "89 to 90"}, {"smiles": "O=C1C(=O)N(c2cccc3ccccc23)C(=O)N1c1ccccc1", "melting point": "105 to 108"}]}]}
